Assay results: PubChem BioAssay AID2060888 (Molecular Pharmacology Branch, DTP, NCI, 2025)

Tested on: 695427-040-R-J1-PDC complex spheroid viability
Experiment: Anticancer human tumor 695427-040-R-J1-PDC patient-derived colon adenocarcinoma cell line growth inhibition [RAS]
Details: for viability, T/C: stronger effect = lower value; for IC50: curve of first compound
In short: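 Agents were tested in combination matrices in half-log decrements from a top concentration at or near clinical Cmax (10 microM if undetermined). Targets were multi-cell spheroids of tumour lines plus HUVEC and MSC stromal cells.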
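Further: viability read after seven days of drug exposure.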
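Wherever viability, T/C is given: 100% = DMSO vehicle control viability.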

## CCn1c(-c2cc(N3CCN(C)CC3)cnc2C(C)OC)c2c3cc(ccc31)-c1csc(n1)CC(NC(=O)C1CC1C)C(=O)N1CCCC(N1)C(=O)OCC(C)(C)C2 (configuration not stated)
Compound 0.003 µM
  viability, T/C: 92.1% [middle of 8 runs]
Compound 0.00949 µM
  viability, T/C: 78.3% [middle of 8 runs]
Compound 0.03 µM
  viability, T/C: 60.2% [middle of 8 runs]
Compound 0.0949 µM
  viability, T/C: 51.3% [middle of 8 runs]
Compound 0.3 µM
  viability, T/C: 43% [middle of 8 runs]

## CCc1c2c(nc3ccc(O)cc13)-c1cc3c(c(=O)n1C2)COC(=O)[C@]3(O)CC + CCn1c(-c2cccnc2C(C)OC)c2c3cc(ccc31)N1CCOC(CC(NC(=O)C(C(C)C)N(C)C(=O)C3(F)CCN(C(=O)C#CC(C)(C)N(C)C)CC3)C(=O)N3CCCC(N3)C(=O)OCC(C)(C)C2)C1
Second compound 0.000949 µM
  IC50: 113 nM
Second compound 0.003 µM
  IC50: 131 nM
Second compound 0.00949 µM
  IC50: 49.3 nM
Second compound 0.03 µM
  IC50: 69.2 nM
Second compound 0.0949 µM
  IC50: 79.1 nM
Second compound 0.3 µM
  IC50: 95.2 nM
Second compound 0.000949 µM, first compound 0.000949 µM
  viability, T/C: 97.1%
Second compound 0.000949 µM, first compound 0.003 µM
  viability, T/C: 93.3%
Second compound 0.000949 µM, first compound 0.00949 µM
  viability, T/C: 84.2%
Second compound 0.000949 µM, first compound 0.03 µM
  viability, T/C: 61.5%
Second compound 0.000949 µM, first compound 0.0949 µM
  viability, T/C: 56.7%
Second compound 0.000949 µM, first compound 0.3 µM
  viability, T/C: 37.7%
Second compound 0.003 µM, first compound 0.000949 µM
  viability, T/C: 91.7%
Second compound 0.003 µM, first compound 0.003 µM
  viability, T/C: 84.6%
Second compound 0.003 µM, first compound 0.00949 µM
  viability, T/C: 66.1%
Second compound 0.003 µM, first compound 0.03 µM
  viability, T/C: 64.1%
Second compound 0.003 µM, first compound 0.0949 µM
  viability, T/C: 53%
Second compound 0.003 µM, first compound 0.3 µM
  viability, T/C: 43.1%
Second compound 0.00949 µM, first compound 0.000949 µM
  viability, T/C: 98.3%
Second compound 0.00949 µM, first compound 0.003 µM
  viability, T/C: 76.8%
Second compound 0.00949 µM, first compound 0.00949 µM
  viability, T/C: 65.8%
Second compound 0.00949 µM, first compound 0.03 µM
  viability, T/C: 63.4%
Second compound 0.00949 µM, first compound 0.0949 µM
  viability, T/C: 36.5%
Second compound 0.00949 µM, first compound 0.3 µM
  viability, T/C: 35.8%
Second compound 0.03 µM, first compound 0.000949 µM
  viability, T/C: 79.8%
Second compound 0.03 µM, first compound 0.003 µM
  viability, T/C: 96.4%
Second compound 0.03 µM, first compound 0.00949 µM
  viability, T/C: 80.1%
Second compound 0.03 µM, first compound 0.03 µM
  viability, T/C: 71.6%
Second compound 0.03 µM, first compound 0.0949 µM
  viability, T/C: 41.7%
Second compound 0.03 µM, first compound 0.3 µM
  viability, T/C: 31.5%
Second compound 0.0949 µM, first compound 0.000949 µM
  viability, T/C: 87.3%
Second compound 0.0949 µM, first compound 0.003 µM
  viability, T/C: 79.5%
Second compound 0.0949 µM, first compound 0.00949 µM
  viability, T/C: 81.6%
Second compound 0.0949 µM, first compound 0.03 µM
  viability, T/C: 49.7%
Second compound 0.0949 µM, first compound 0.0949 µM
  viability, T/C: 57%
Second compound 0.0949 µM, first compound 0.3 µM
  viability, T/C: 24.2%
Second compound 0.3 µM, first compound 0.000949 µM
  viability, T/C: 82.7%
Second compound 0.3 µM, first compound 0.003 µM
  viability, T/C: 101%
Second compound 0.3 µM, first compound 0.00949 µM
  viability, T/C: 69.7%
Second compound 0.3 µM, first compound 0.03 µM
  viability, T/C: 58.8%
Second compound 0.3 µM, first compound 0.0949 µM
  viability, T/C: 57%
Second compound 0.3 µM, first compound 0.3 µM
  viability, T/C: 31.2%
